Reference: US7488738B2, “Aminophenoxyacetic acid derivatives and pharmaceutical composition containing thereof” (Asubio Pharma Co., Ltd., priority 1998, dated 2009)

Tested on: cells of cerebral cortex
Assay: Cytoprotective effect against glutamate induced cell death (MTT)
Type: cell-based, rats of Wister strain
Conditions: compound 1 μM added 24 h before 1 mM glutamate, fetal rat cerebral cortex cells, control group = 100%
Method: Biological Test 1: Cytoprotective Effect Against Glutamate Induced Cell Death
In accordance with the method of M. P. Mattoson [M. P. Mattoson, Brain Res. Rev., 13, 179 (1988)], brain of 18-days fetus rats of Wister strain were taken out. Then, cells of cerebral cortex (4×10^5 cells/ml) were seeded on poly-L-lysine coated 96 wells flat bottom plate (Sumitomo Bakelite Co., Ltd.) in concentration of 4×10^4 cells/each well. After 48 hours of incubation, 1 μM of test compounds were added, then after further 24 hours, 1 mM of glutamate were further added for inducing the cell injury. 12 hours after adding glutamate, MTT [3-(4,5-dimethylthiazol)-2,5-diphenyltetrazolium bromide] was added and incubated for 6 hours.
After incubation, 200 μl of dimethy sulfoxide was added to each wells, and the amounts of reduced MTT were calorimetrically analyzed by Micro ELISA Reader using 570 nm of main-wavelength and 650 nm of sub-wavelength.
The effect of the test compounds was determined as the survival rate of living cells (%) according to the following equation: Survival rate of living cells (%)=[(test compound group−glutamate treated group)÷(control group−glutamate treated group)]×100
That is, the survival rate of living cells after incubation of the control group was converted to 100%, and the survival data of living cells of the tested compounds was shown in Table II.

In order of rising “Survival Rate (%) (Compound: 1 μM)” value:
1. Cc1cc(C)c(NCC(=O)N(C)C2CCN(CC(O)COc3ccccc3)CC2)c(C)c1N (stereo not shown) [Compound 126, 2-(3-Amino-2,4,6-tirmethylanilino)-N-[1-(2-hydroxy-3-phenoxy)propyl-4-piperidinyl]-N-methylacetamide]  47%
2. Cc1c(C)c(NCC(=O)N(C)C2CCN(Cc3ccc(C(N)=O)cc3)CC2)c(C)c(C)c1N [Compound 116]  59%
3. Cc1cc(OC(C)C(=O)NC2CCN(CC(=O)Nc3ccccc3)CC2)c(C)c(C)c1N (stereo not shown) [Compound 83, 2-(4-Amino-2,3,5-trimethylphenoxy)-N-[1-(2-anilino-2-oxyethyl)-4-piperidinyl]propamide]  65%
4. Cc1c(C)c(OCC(=O)N(C)C2CCN(CC(=O)Nc3cc(Cl)c(N)cc3Cl)CC2)c(Cl)c(C)c1N [Compound 92, 2-(4-Amino-2-chloro-3,5,6-trimethylphenoxy)-N-[1-(2-(4-amino-2,5-dichloro)anilino-2-oxyethyl)-4-piperidinyl]-N-methylacetamide]  66%
5. Cc1cc(C)c(NCC(=O)N(C)C2CCN(CC(=O)c3ccccc3)CC2)c(C)c1N [Compound 127, 2-(3-Amino-2,4,6-trimethylanilino)-N-methyl-N-[1-(2-phenyl-2-oxyethyl)-4-piperidinyl]acetamide]  72%
6. CCN(C(=O)C(C)Oc1cc(C)c(N)c(C)c1C)C1CCN(CC2(c3ccccc3)CC2)CC1 (stereo not shown) [Compound 87, 2-(4-Amino-2,3,5-trimethylphenoxy)-N-ethyl-N-[1-(1-phenyl-1-cyclopropane)methyl-4-piperidinyl]propamide]  81%
7. CCN(C(=O)CNc1c(C)c(C)c(N)c(C)c1C)C1CCN(CC2(c3ccccc3)CC2)CC1 [Compound 88, 2-(4-Amino-2,3,5,6-tetramethylanilino)-N-ethyl-N-[1-(1-phenyl-1-cyclopropane)methyl-4-piperidinyl]acetamide]  81%
8. Cc1c(C)c(NC(C)C(=O)N(C)C2CCN(CC3CC3)CC2)c(C)c(C)c1N (stereo not shown) [Compound 121, 2-(4-Amino-2,3,5,6-tetramethylanilino)-N-[1-(cyclopropylmethyl)-4-piperidinyl]-N-methylpropamide]  82%
9. Cc1cc(OC(C)C(=O)NC2CCN(C/C=C/c3ccccc3)CC2)c(C)c(C)c1N (stereo not shown) [Compound 84, 2-(4-Amino-2,3,5-trimethylphenoxy)-N-[1-(3-phenyl-2-(E)-propenyl)-4-piperidinyl]propamide]  87%
10. Cc1c(C)c(N(C)CC(=O)N(C)C2CCN(CCc3ccccc3)CC2)c(C)c(C)c1N [Compound 120, 2-(4-Amino-2,3,5,6-tetramethyl-N-methylanilino)-N-methyl-N-[1-(2-phenethyl)-4-piperidinyl]acetamide]  88%
11. Cc1cc(OC(C)C(=O)NC2CCN(CC(=O)NC3(c4ccccc4)CC3)CC2)c(C)c(C)c1N (stereo not shown) [Compound 102, 2-(4-Amino-2,3,5-trimethylphenoxy)-N-[1-(2-(1-phenylcyclopropyl)amino-2-oxyethyl)-4-piperidinyl]propamide]  89%
12. Cc1cc(OCC(=O)NC2CCN(CC3(c4ccccc4)CC3)CC2)c(C)c(C)c1N [Compound 96, 2-(4-Amino-2,3,5-trimethylphenoxy)-N-[1-(1-phenyl-1-cyclopropane)methyl-4-piperidinyl]acetamide]  91%
13. Cc1cc(OC(C)(C)C(=O)NC2CCN(CC3(c4ccccc4)CC3)CC2)c(C)c(C)c1N [Compound 81, 2-(4-Amino-2,3,5-trimethylphenoxy)-2-methyl-N-[1-(1-phenyl-1-cyclopropane)methyl-4-piperidinyl]propamide]  97%
14. Cc1cc(OCC(=O)NC2CCN(CC(=O)Nc3ccccc3)CC2)c(C)c(C)c1N [Compound 85, 2-(4-Amino-2,3,5-trimethylphenoxy)-N-[1-(2-anilino-2-oxyethyl)-4-piperidinyl]acetamide]  98%
15. Cc1cc(OC(C)(C)C(=O)NC2CCN(C/C=C/c3ccccc3)CC2)c(C)c(C)c1N [Compound 80, 2-(4-Amino-2,3,5-trimethylphenoxy)-2-methyl-N-[1-(3-phenyl-2-(E)-propenyl)-4-piperidinyl]propamide]  99%
16. Cc1cc(OCC(=O)NC2CCN(CCc3ccccc3)CC2)c(C)c(C)c1N [Compound 97, 2-(4-Amino-2,3,5-trimethylphenoxy)-N-(1-(2-phenethyl)-4-piperidinyl)acetamide]  119%
17. Cc1cc(OC(C)(C)C(=O)NC2CCN(CC(=O)Nc3c(C)cccc3C)CC2)c(C)c(C)c1N [Compound 98, 2-(4-Amino-2,3-5-trimethylphenoxy)-2-methyl-N-[1-(2-(2,6-dimethylanilino)-2-oxyethyl)-4-piperidinyl]propamide]  120%
18. Cc1cc(OCC(=O)N(C)C2CCN(CC(=O)Nc3cc(Cl)c(N)cc3Cl)CC2)c(C)c(C)c1N [Compound 89, 2-(4-Amino-2,3,5-trimethylphenoxy)-N-[1-(2-(4-amino-2,5-dichloro)anilino-2-oxyethyl)-4-piperidinyl]-N-methylacetamide]  126%
19. Cc1cc(OC(C)(C)C(=O)NC2CCN(CC(=O)Nc3ccccc3C(C)(C)C)CC2)c(C)c(C)c1N [Compound 100, 2-(4-Amino-2,3,5-trimethylphenoxy)-2-methyl-N-[1-(2-(2-tert-butylanilino)-2-oxyethyl)-4-piperidinyl]propamide]  138%
20. Cc1cc(OC(C)C(=O)NC2CCN(CC3(c4ccccc4)CC3)CC2)c(C)c(C)c1N (stereo not shown) [Compound 101, 2-(4-Amino-2,3,5-trimethylphenoxy)-N-[1-(1-phenyl-1-cyclopropane)methyl-4-piperidinyl]propamide]  138%
21. Cc1cc(OC(C)(C)C(=O)NC2CCN(CC(=O)Nc3ccccc3)CC2)c(C)c(C)c1N [Compound 82, 2-(4-Amino-2,3,5-trimethylphenoxy)-2-methyl-N-[1-(2-anilino-2-oxyethyl)-4-piperidinyl]propamide]  149%
22. Cc1cc(OC(C)C(=O)N(C)C2CCN(CC3(c4ccccc4)CC3)CC2)c(C)c(C)c1N (stereo not shown) [Compound 90, 2-(4-Amino-2,3,5-trimethylphenoxy)-N-methyl-N-[1-(1-phenyl-1-cyclopropane)methyl-4-piperidinyl]propamide]  149%
23. CCN(C(=O)COc1c(C)c(C)c(N)c(C)c1Cl)C1CCN(CC(=O)Nc2cc(C)c(O)cc2C)CC1 [Compound 93, 2-(4-Amino-2-chloro-3,5,6-trimethylphenoxy)-N-[1-(2-(2,5-dimethyl-4-hydroxy)anilino-2-oxyethyl)-4-piperidinyl]-N-ethylacetamide]  171%
24. Cc1cc(OC(C)C(=O)N(C)C2CCN(CC(O)COc3ccccc3)CC2)c(C)c(C)c1N (stereo not shown) [Compound 103, 2-(4-Amino-2,3,5-trimethylphenoxy)-N-methyl-N-[1-(2-hydroxy-3-phenoxy)propyl-4-piperidinyl]propamide]  180%
25. Cc1c(C)c(OCC(=O)NC2CCN(CC(=O)Nc3ccccc3)CC2)c(Cl)c(C)c1N [Compound 91, 2-(4-Amino-2-chloro-3,5,6-trimethylphenoxy)-N-[1-(2-anilino-2-oxyethyl)-4-piperidinyl]acetamide]  203%
26. Cc1cc(NC(=O)CN2CCC(N(C)C(=O)C(C)(C)Oc3cc(C)c(N)c(C)c3C)CC2)c(C)cc1O [Compound 107, 2-(4-Amino-2,3,5-trimethylphenoxy)-2-methyl-N-[1-(2-(2,5-dimethyl-4-hydroxy)anilino-2-oxyethyl]-4-piperidinyl]-N-methylpropamide]  227%

Same assay, conditions: compound 1 μM added 24 h before 1 mM glutamate, fetal rat cerebral cortex cells, control group = 100%, read-out: Survival Rate (%) (Compound: 1 μM)

In order of falling viability at 1 µM:
1. Cc1cc(OCC(=O)NC2CCN(C/C=C/c3ccccc3)CC2)c(C)c(C)c1N [Compound 86, 2-(4-Amino-2,3,5-trimethylphenoxy)-N-[1-(3-phenyl-2-(E)-propenyl)-4-piperidinyl]acetamide]  127%
2. Cc1cc(C)c(NCC(=O)N(C)C2CCN(CC3CC3)CC2)c(C)c1N [Compound 129, 2-(3-Amino-2,4,6-trimethylanilino)-N-[1-(cyclopropylmethyl)-4-piperidinyl]-N-methylacetamide]  64%
3. Cc1c(C)c(NCC(=O)N(C)C2CCN(Cc3ccccc3)CC2)c(C)c(C)c1N [Compound 110, 2-(4-Amino-2,3,5,6-tetramethylanilino)-N-(1-benzyl-4-piperidinyl]-N-methylacetamide]  61%
4. Cc1cc(C)c(NCC(=O)N(C)C2CCN(C/C=C/c3ccccc3)CC2)c(C)c1N [Compound 125, 2-(3-Amino-2,4,6-trimethylanilino)-N-methyl-N-[1-(3-phenyl-2-(E)-propenyl)-4-piperidinyl]acetamide]  52%
5. Cc1c(C)c(NCC(=O)N(C)C2CCN(Cc3ccncc3)CC2)c(C)c(C)c1N [Compound 114, 2-(4-Amino-2,3,5,6-tetramethylanilino)-N-methyl-N-[1-(4-pyridylmethyl)-4-piperidinyl]acetamide]  50%
